One series has as its system lung fibroblasts. Put plainly: Fibroblast proliferation (counting DAPI nuclei). In kind it is cell-based, human. The method, then:
IPF fibroblast and Normal lung fibroblast co-culture proliferation. Cell are prelabelled with fluorescent dyes (red and green) and then cocultured at a ratio of about 1:1 in 96 well plates. Cell counts are determined every 24 hours and plotted as a ratio of IPF/HLF cells. In the control wells the IPF cells outgrow and take over the well. N=2.
Proliferation of lung fibroblasts (IMR-90 cells) measured for 4 days in the presence of GPCR agonists ET-1 (100 nM) and LPA (10 μM)+/−10 μM DHX. Cells were fixed and counted with DAPI at the end of each day. N=3 technical triplicates.
Adult lung fibroblasts plated into 96-well plates, stimulated with 2 ng/mL TGFβ and compounds at the indicated concentration. Proliferation determined by fixing and counting DAPI nuclei using a Cytation 5. N=2.
Fibroblasts were stimulated with 2 ng/mL TGFβ and treated with compound 1 (MS-9) at the indicated concentration (0.1 μM, 1 μM, and 10 μM). Proliferation determined by fixing and counting DAPI nuclei using a Cytation.

A further series has as its system YAP/TAZ. Briefly: YAP/TAZ nuclear localization in IMR-90 and other fibroblasts / mesenchymal cells (immunofluorescence). The series is classed as cell-based, human. As to conditions: for YAP/TAZ nuclear localization: fibroblasts / mesenchymal cells on plastic, 2 hours.
Another series relates to normal healthy mice. As to conditions: mouse, in vivo. The method, then: Bleomycin model of pulmonary fibrosis was used to test the efficacy of DHX in vivo in experimental fibrosis. Mice were administered bleomycin intratracheally at Day 0. On Day 10 injury and inflammation typically subside and fibrosis is ongoing. At Day 10 mice were randomized into two groups, one receiving DHX (5 mg/kg once daily i.n.) and the other, vehicle control. […] At day 24 the mice were sacrificed and compared using histology, hydroxyproline and qPCR. […] To assess whether DHX adversely effects lung remodeling in the absence of fibrosis, we also exposed control mice to DHX following an identical time course and route of exposure.

Take `Oc1cc2c(cc1O)[C@H]1c3ccccc3CN[C@@H]1CC2` (racemic) [Dihydrexidine]: the “proliferation of lung fibroblasts” value in the series on lung fibroblasts (4 days, ET-1, LPA, TGFβ or CTGF +/− 10 μM DHX) is given as “blocks proliferation”. In addition, the “IPF fibroblast and normal lung fibroblast co-culture proliferation” value in the series with lung fibroblasts (co-culture about 1:1, ratio of IPF/HLF cells every 24 hours) is “selectively slows proliferation in IPF fibroblasts”. The “YAP/TAZ nuclear localization stimulated by GPCR ligands” value with YAP/TAZ (confluent fibroblasts, endothelin-1, lysophosphatidic acid, serotonin, DHX 10 μM) is “blocked nuclear localization of YAP/TAZ”. In the series with YAP/TAZ, the YAP/TAZ nuclear localization entry is “reduced nuclear localization of YAP/TAZ”. In the series on YAP/TAZ (listed as DHX), the YAP/TAZ nuclear localization entry is “effective at inhibiting YAP/TAZ nuclear localization”. For the same molecule, the “potency of inhibition of YAP/TAZ nuclear localization, normal vs IPF lung fibroblasts” value with YAP/TAZ (normal lung fibroblasts vs those from a patient with IPF) is reported as “equally potent”. Further, in the series on normal healthy mice, the body weight result is on record as “did not alter body weight”; the “expression of Ctgf, Col1a1, Acta2, and Fn1” value is “did not alter expression of Ctgf, Col1a1, Acta2, and Fn1”; the lung collagen deposition result is “did not alter lung collagen deposition”; the lung histology entry is “did not alter lung histology”.

Source of the values: US12264163B2, “Compounds and methods for treating fibrotic pathologies” (Mayo Foundation for Medical Education and Research, priority 2019, dated 2025).
